According to patent publication US9326506B2, “Preparation method, agricultural composition and applications of natural brassinolide analogs” (CHENGDU NEWSUN CROPSCIENCE CO., LTD, priority 2012, dated 2016):

Test system: rice
Test: Low temperature assay on rice seedlings
Assay type: in vivo
Experimental: According to a low temperature assay, we measured parameters including plant height, number of leaf, area of leaf, number of tiller, weight of root at low temperature to completely determine effects of the natural brassinolide analogues on the resistance to low temperature of a plant.
The natural brassinolide analogues, BR1, BR2, BR3, BR4, BR5 and BR6, used herein, were those prepared by the method of Example 1. Respectively the analogues were dissolved into 95% (V/V) ethanol solution, and then diluted with pure water to 1 mg/L, 0.1 mg/L, 0.01 mg/L, 0.001 mg/L and 0.0001 mg/L. In addition, pure water was used as a control.
After rice seeds were disinfected by using 5% sodium hypochlorite solution treatment, they were rinsed with distilled water until their pH>7, placed into a petri dish in a dark incubator, and cultured by using water at 30° C.±2° C. for 9 days. Then respectively the nine-day-old etiolated seedlings of rice were immersed in the above solutions containing different concentrations of the natural brassinolide analogues or pure water, and cultured at the temperature of 1° C., 2° C., 3° C., 4° C. and 5° C. for 24 hr. The parameters including plant height, area of leaf and weight of root after 3, 6, 9 and 12 days and number of leaf and number of tiller after 12 days were measured.

## CC(C)[C@H](C)[C@@H](O)[C@H](O)[C@@H](C)[C@H]1CCC2C3COC(=O)C4C[C@H](O)[C@H](O)C[C@]4(C)C3CC[C@@]21C (some centres unmarked) [BR1]
0.01 mg/l, 3 °C, 9 days
  Height: 7.4 cm
  Weight of root: 2.9 g
0.01 mg/l, 3 °C, 12 days
  Area of leaf: 13.2 cm^2
  Height: 7.6 cm
  Number of leaf: 3
  Number of tiller: 2
  Weight of root: 2.9 g
0.01 mg/l, 4 °C, 3 days
  Area of leaf: 10.8 cm^2
  Height: 7.1 cm
  Weight of root: 2.5 g
0.01 mg/l, 4 °C, 6 days
  Area of leaf: 12.4 cm^2
  Height: 7.3 cm
  Weight of root: 2.6 g
0.01 mg/l, 4 °C, 9 days
  Area of leaf: 13.4 cm^2
  Height: 7.5 cm
  Weight of root: 2.9 g
0.01 mg/l, 4 °C, 12 days
  Area of leaf: 13.7 cm^2
  Height: 7.8 cm
  Number of leaf: 3
  Number of tiller: 2
  Weight of root: 3.0 g
0.01 mg/l, 5 °C, 3 days
  Area of leaf: 10.9 cm^2
  Height: 7.7 cm
  Weight of root: 2.8 g
0.01 mg/l, 5 °C, 6 days
  Area of leaf: 13.9 cm^2
  Height: 7.8 cm
  Weight of root: 3.0 g
0.01 mg/l, 5 °C, 9 days
  Area of leaf: 17.4 cm^2
  Height: 8.2 cm
  Weight of root: 3.4 g
0.01 mg/l, 5 °C, 12 days
  Area of leaf: 18 cm^2
  Height: 8.5 cm
  Number of leaf: 4
  Number of tiller: 3
  Weight of root: 3.9 g
0.1 mg/l, 1 °C, 3 days
  Area of leaf: 10.1 cm^2
  Height: 7.0 cm
  Weight of root: 2.8 g
0.1 mg/l, 1 °C, 6 days
  Area of leaf: 11.9 cm^2
  Height: 7.2 cm
  Weight of root: 3.0 g
0.1 mg/l, 1 °C, 9 days
  Area of leaf: 12.9 cm^2
  Height: 7.3 cm
  Weight of root: 3.4 g
0.1 mg/l, 1 °C, 12 days
  Area of leaf: 13.4 cm^2
  Height: 7.5 cm
  Number of leaf: 3
  Number of tiller: 3
  Weight of root: 3.6 g
0.1 mg/l, 2 °C, 3 days
  Area of leaf: 10.4 cm^2
  Height: 7.1 cm
  Weight of root: 2.9 g
0.1 mg/l, 2 °C, 6 days
  Area of leaf: 11.8 cm^2
  Height: 7.2 cm
  Weight of root: 3.0 g
0.1 mg/l, 2 °C, 9 days
  Area of leaf: 12.8 cm^2
  Height: 7.3 cm
  Weight of root: 3.1 g
0.1 mg/l, 2 °C, 12 days
  Area of leaf: 13.6 cm^2
  Height: 7.4 cm
  Number of leaf: 3
  Number of tiller: 3
  Weight of root: 3.2 g
0.1 mg/l, 3 °C, 3 days
  Area of leaf: 10.5 cm^2
  Height: 7.2 cm
  Weight of root: 2.5 g
0.1 mg/l, 3 °C, 6 days
  Area of leaf: 12 cm^2
  Height: 7.3 cm
  Weight of root: 2.6 g
0.1 mg/l, 3 °C, 9 days
  Area of leaf: 12.8 cm^2
  Height: 7.4 cm
  Weight of root: 2.9 g
0.1 mg/l, 3 °C, 12 days
  Area of leaf: 13.4 cm^2
  Height: 7.6 cm
  Number of leaf: 3
  Number of tiller: 2
  Weight of root: 2.9 g
0.1 mg/l, 4 °C, 3 days
  Area of leaf: 10.8 cm^2
  Height: 7.1 cm
  Weight of root: 2.5 g
0.1 mg/l, 4 °C, 6 days
  Area of leaf: 12.5 cm^2
  Height: 7.4 cm
  Weight of root: 2.7 g
0.1 mg/l, 4 °C, 9 days
  Area of leaf: 13.5 cm^2
  Height: 7.5 cm
  Weight of root: 2.9 g
0.1 mg/l, 4 °C, 12 days
  Area of leaf: 13.8 cm^2
  Height: 7.7 cm
  Number of leaf: 3
  Number of tiller: 2
  Weight of root: 3.1 g
0.1 mg/l, 5 °C, 3 days
  Area of leaf: 11.1 cm^2
  Height: 7.7 cm
  Weight of root: 2.9 g
0.1 mg/l, 5 °C, 6 days
  Area of leaf: 13.9 cm^2
  Height: 7.9 cm
  Weight of root: 3.2 g
0.1 mg/l, 5 °C, 9 days
  Area of leaf: 17.8 cm^2
  Height: 8.4 cm
  Weight of root: 3.5 g
0.1 mg/l, 5 °C, 12 days
  Area of leaf: 19 cm^2
  Height: 8.7 cm
  Number of leaf: 3
  Number of tiller: 2
  Weight of root: 4.1 g
1 mg/l, 1 °C, 3 days
  Area of leaf: 10 cm^2
  Height: 7.1 cm
  Weight of root: 2.8 g
1 mg/l, 1 °C, 6 days
  Area of leaf: 11.2 cm^2
  Height: 7.2 cm
  Weight of root: 3.1 g
1 mg/l, 1 °C, 9 days
  Area of leaf: 12.4 cm^2
  Height: 7.3 cm
  Weight of root: 3.4 g
1 mg/l, 1 °C, 12 days
  Area of leaf: 13 cm^2
  Height: 7.4 cm
  Number of leaf: 3
  Number of tiller: 3
  Weight of root: 3.9 g
1 mg/l, 2 °C, 3 days
  Area of leaf: 10.2 cm^2
  Height: 7.1 cm
  Weight of root: 2.8 g
1 mg/l, 2 °C, 6 days
  Area of leaf: 11.7 cm^2
  Height: 7.2 cm
  Weight of root: 3.0 g
1 mg/l, 2 °C, 9 days
  Area of leaf: 12.6 cm^2
  Height: 7.3 cm
  Weight of root: 3.2 g
1 mg/l, 2 °C, 12 days
  Area of leaf: 13 cm^2
  Height: 7.5 cm
  Number of leaf: 3
  Number of tiller: 3
  Weight of root: 3.9 g
1 mg/l, 3 °C, 3 days
  Area of leaf: 10.4 cm^2
  Height: 7.1 cm
  Weight of root: 2.5 g
1 mg/l, 3 °C, 6 days
  Area of leaf: 12 cm^2
  Height: 7.2 cm
  Weight of root: 2.6 g
1 mg/l, 3 °C, 9 days
  Area of leaf: 12.6 cm^2
  Height: 7.5 cm
  Weight of root: 2.9 g
1 mg/l, 3 °C, 12 days
  Area of leaf: 13.2 cm^2
  Height: 7.6 cm
  Number of leaf: 3
  Number of tiller: 2
  Weight of root: 2.9 g
1 mg/l, 4 °C, 3 days
  Area of leaf: 10.9 cm^2
  Height: 7.1 cm
  Weight of root: 2.5 g
1 mg/l, 4 °C, 6 days
  Area of leaf: 12.6 cm^2
  Height: 7.5 cm
  Weight of root: 2.7 g
1 mg/l, 4 °C, 9 days
  Area of leaf: 13.7 cm^2
  Height: 7.6 cm
  Weight of root: 3.0 g
1 mg/l, 4 °C, 12 days
  Area of leaf: 14 cm^2
  Height: 7.7 cm
  Number of leaf: 3
  Number of tiller: 2
  Weight of root: 3.2 g
1 mg/l, 5 °C, 3 days
  Area of leaf: 11.1 cm^2
  Height: 7.7 cm
  Weight of root: 2.9 g
1 mg/l, 5 °C, 6 days
  Area of leaf: 13.6 cm^2
  Height: 8.0 cm
  Weight of root: 3.5 g
1 mg/l, 5 °C, 9 days
  Area of leaf: 18.4 cm^2
  Height: 8.6 cm
  Weight of root: 3.7 g
1 mg/l, 5 °C, 12 days
  Area of leaf: 20 cm^2
  Height: 8.9 cm
  Number of leaf: 3
  Number of tiller: 2
  Weight of root: 4.5 g
In vivo
  Effects on resistance to low temperature compared among analogues: more than those of BR2, BR3 and BR4
